Laboratory results reported in US5578324A, “Peptide proteinaceous drug nasal powder composition” (Teijin Limited, priority 1993, dated 1996).
Where a name gives a salt, the structure may show the parent alone. Where a SMILES comes first, the peptide text is derived from it. [ ]: non-standard residue; d: D form. The star is where a group is joined. Sta = CC(C)C[C@H](N)[C@@H](O)CC(=O)O; Isovaleryl = CC(C)CC(=O)*

Assays:
Format in all cases: biochemical
[1] = system: Human Nasal Mucosal Homogenate; assay: Inhibitory effect on degradation of peptide proteinaceous drug in human nasal mucosal homogenate; design: concentration or dose not given beside the values; conditions: 37° C., HPLC; for Inhibitor (%) ACTH: degradation of adrenocorticotropic hormone (ACTH); for Inhibitor (%) CGRP: degradation of calcitonin gene related peptide (CGRP); for Inhibitor (%) GLU: degradation of glucagon (GLU); for Inhibitor (%) GHRH: degradation of growth hormone releasing hormone (GHRH); for Inhibitor (%) INS: degradation of insulin (INS); for Inhibitor (%) LHRH: degradation of luteinizing hormone releasing hormone (LHRH); for Inhibitor (%) PTH: degradation of parathyroid hormone (PTH); for Inhibitor (%) PDGF: degradation of platelet-derived growth factor (PDGF); for Inhibitor (%) SCT: degradation of salmon calcitonin (SCT); for Inhibitor (%) GIF: degradation of somatostatin (GIF); for Inhibitor (%) S.p: degradation of substance P (S.p)
Procedure: A homogenate solution was prepared from human nasal mucosa to give 1 mg/ml of protein. […] The amounts of the peptide proteinaceous drug not yet cleaved after a predetermined time were measured by HPLC to find the amounts of decomposition. The inhibition rates were calculated by the following formula.
Inhibition rate (%)=(A-B)/A×100
A: Amount of peptide proteinaceous drug cleaved when enzyme inhibitor or absorption accelerant of present invention is not added to homogenate
B: Amount of peptide proteinaceous drug cleaved when enzyme inhibitor or absorption accelerant of present invention is added to homogenate

[2] = molecular target: T1, trypsin (Bos taurus, UniProt P00760); assay: Trypsin inhibiting activity
T1 construct: gene PRSS1
T1 sequence (P00760 24-246): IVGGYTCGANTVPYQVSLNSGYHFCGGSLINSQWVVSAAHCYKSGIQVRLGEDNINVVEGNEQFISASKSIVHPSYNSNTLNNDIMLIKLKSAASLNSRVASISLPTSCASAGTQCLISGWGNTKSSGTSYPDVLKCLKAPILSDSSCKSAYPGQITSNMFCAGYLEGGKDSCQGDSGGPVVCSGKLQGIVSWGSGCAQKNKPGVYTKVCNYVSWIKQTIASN

[3] = system: Human Nasal Mucosal Homogenate; assay: Activity of protease in human nasal mucosal homogenate (cleavage of synthesized substrates); conditions: substrate 0.1 mM, 37° C., amount of substrate cleaved by HPLC
Procedure: A homogenate solution was prepared from human nasal mucosa to give 1 mg/ml of protein. Next, synthesis substrates corresponding to the various proteases shown in Table 1 were added to 0.5 ml portions of the homogenate solution to give 0.1 mM concentrations. The results were incubated at 37° C. The amounts of the substrates remaining after a predetermined time were measured by HPLC to find the amounts of substrates cleaved and find the activity of the various proteases.

Compound	Inhibitor (%) ACTH [1]	Inhibitor (%) CGRP [1]	Inhibitor (%) GLU [1]	Inhibitor (%) GHRH [1]	Inhibitor (%) INS [1]	Inhibitor (%) LHRH [1]	Inhibitor (%) PTH [1]	Inhibitor (%) PDGF [1]	Inhibitor (%) SCT [1]	Inhibitor (%) GIF [1]	Inhibitor (%) S.p [1]	trypsin inhibiting activity [2]	Activity (nM/h/mg protein) [3]
NCc1ccccc1 [Benzylamine]	80%	76%	48%	68%	68%	49%	80%	52%	70%	78%	54%	–	–
NC[C@H]1CC[C@H](C(=O)Oc2ccc(CCC(=O)O)cc2)CC1 [Cetraxate hydrochloride, trans-(4-aminomethyl) cyclohexane carboxylic acid p-(2-carboxyethyl)phenyl ester]	70%	70%	54%	70%	80%	48%	75%	58%	–	80%	54%	no trypsin inhibiting activity	–
CC(C)C[C@H](NC(=O)[C@@H](NC(=O)N[C@@H](Cc1ccccc1)C(=O)O)[C@@H]1CCN=C(N)N1)C(=O)N[C@H](C=O)Cc1ccccc1 [Chymostatin]	12%	23%	35%	25%	22%	16%	15%	10%	38%	25%	15%	–	–
NCCc1ccc(O)c(O)c1 [Dopamine hydrochloride, 4-(2-aminoethyl)-1,2 benzenediol]	77%	72%	50%	50%	52%	29%	70%	55%	64%	72%	60%	no trypsin inhibiting activity	–
CCOC(=O)c1ccc(OC(=O)CCCCCNC(=N)N)cc1 [Gabexate]	48%	49%	56%	40%	46%	27%	44%	43%	53%	56%	40%	–	–
NCc1ccc(S(N)(=O)=O)cc1 [Mafenide acetate, 4-(aminomethyl) benzenesulfamine]	78%	70%	56%	66%	52%	32%	75%	59%	67%	74%	55%	no trypsin inhibiting activity	–
CC(C)CC(=O)N[C@H](C(=O)N[C@H](C(=O)N[C@@H](CC(C)C)[C@@H](O)CC(=O)N[C@@H](C)C(=O)N[C@@H](CC(C)C)[C@@H](O)CC(=O)O)C(C)C)C(C)C [Pepstatin] (Isovaleryl-VV[Sta]A[Sta]-OH)	4%	10%	8%	0%	15%	0%	10%	0%	10%	0%	0%	–	–
NC[C@H]1CC[C@H](C(=O)c2ccc(CCC(=O)O)cc2)CC1 [Rotraxate hydrochloride, 3-((p-(trans-4-aminomethylcyclohexylcarbonyl)phenyl)) propionic acid]	74%	75%	62%	75%	84%	56%	76%	59%	80%	86%	53%	no trypsin inhibiting activity	–
Cc1ccc(S(=O)(=O)N[C@@H](Cc2ccccc2)C(=O)CCl)cc1 [TPCK]	8%	0%	5%	0%	7%	5%	10%	3%	0%	11%	10%	–	–
O=C(O)CNC(=O)C(CS)Cc1ccccc1 (stereo not shown) [Thiorphan]	0%	0%	0%	0%	0%	0%	0%	0%	0%	–	0%	–	–
NC[C@H]1CC[C@H](C(=O)O)CC1 [Tranexamic acid, trans-4-(aminomethyl) cyclohexane carboxylic acid]	80%	75%	68%	75%	79%	58%	78%	68%	73%	80%	65%	no trypsin inhibiting activity	–
NCc1ccc(C(=O)O)cc1 [p-Aminomethyl benzoic acid]	84%	72%	60%	70%	74%	54%	80%	65%	76%	85%	58%	–	–
Bz--Arg--MCA	–	–	–	–	–	–	–	–	–	–	–	–	1 nM/h/mg protein
